The results in this text go back to patent US11109593B2, “Isoxazolin-5-one derivative and herbicide containing same as active ingredient” (HOKKO CHEMICAL INDUSTRY CO., LTD., priority 2017, dated 2021).

Format in all cases: in vivo
Assay [1] has as its system Echinochloa crus-galli. Description: Test Example 1: herbicidal effect test by treatment of rice paddy soil (immediately after seeding). The note with it: 120 g/10a active ingredient, dry weight vs untreated area, 14 days after treatment. The method, then: (§1) Herbicidal Effect Test by Treatment of Rice Paddy Soil
(§2) Wagner pots with an area of 1/10000 ares were filled with a paddy soil, and after adding water, a compound fertilizer (N:P:K=17:17:17) was added, followed by soil puddling. Then, Echinochloa crus-galli, broad leaf weeds (Lindernia pyxidaria and Monochoria vaginalis) and Scirpus juncoides, 30 seeds each, were sown in a depth of 0 to 1 cm. Water was poured immediately after seeding, and the water depth was kept at about 3 cm. The subsequent management was conducted in a glass greenhouse. Immediately after that, emulsions prepared using the compounds in Table 3 below according to Formulation Example 5 were diluted with water, and a certain amount of the water-diluted agent solutions were dropped. The converted amount of the applied active ingredient corresponded to 120 g per 10 ares.
(§3) This test was conducted in a double system per one agent solution concentration area, and the herbicidal rates (%) were determined by the following equation (Math. 1) on 14 days after the treatment with the agents. Herbicidal Rate (%)={1-(Average Dry Weight (g) of Plant of Treated Area)/(Average Dry Weight (g) of Plant of Untreated Area)}×100 [Math. 1]
(§4) The compound numbers in Table 3 are the same as those in Table 1 and Table 2 above.

Assay [2] concerns Scirpus juncoides. The description is as above. To be noted: 120 g/10a active ingredient, dry weight vs untreated area, 14 days after treatment. The method, then: as §1, §2, §3, §4
In assay [3] the test system is broad leaf weeds (Lindernia pyxidaria and Monochoria vaginalis). The description is as above. To be noted: 120 g/10a active ingredient, dry weight vs untreated area, 14 days after treatment. The method, then:
as §1, §2, §3, §4

Assay [4] concerns Echinochloa crus-galli. Description: Test Example 2: herbicidal effect test by treatment during growing period in paddy rice cultivation (seven days after seeding). The note with it: 120 g/10a active ingredient, assessed 14 days after treatment, dry weight vs untreated area. The method, then: as §3
(§5) Herbicidal Effect Test by Treatment During Growing Period in Paddy Rice Cultivation
as §2, with “was mixed,” for “was added,”, “greenhouse. Emulsions” for “greenhouse. Immediately after that, emulsions”, “Table 4” for “Table 3”, “with water seven days after seeding,” for “with water,”, “ares. The test was conducted in a double system per one agent solution concentration area, and the herbicidal rates (%) were determined by the equation (Math. 1) on 14 days after the treatment with the agents. […] The compound numbers in Table 4 are the same as those in Table 1 and Table 2 above.” for “ares.”

The test system of assay [5] is Scirpus juncoides. The assay is described as above. The note with it: 120 g/10a active ingredient, assessed 14 days after treatment, dry weight vs untreated area. The method, then: as §3, §5
as §2, with “was mixed,” for “was added,”, “greenhouse. Emulsions” for “greenhouse. Immediately after that, emulsions”, “Table 4” for “Table 3”, “with water seven days after seeding,” for “with water,”, “ares. The test was conducted in a double system per one agent solution concentration area, and the herbicidal rates (%) were determined by the equation (Math. 1) on 14 days after the treatment with the agents. […] The compound numbers in Table 4 are the same as those in Table 1 and Table 2 above.” for “ares.”

Assay [6] deals with broad leaf weeds (Lindernia pyxidaria and Monochoria vaginalis). The description is as above. The note with it: 120 g/10a active ingredient, assessed 14 days after treatment, dry weight vs untreated area. On the procedure:
as §3, §5
as §2, with “was mixed,” for “was added,”, “greenhouse. Emulsions” for “greenhouse. Immediately after that, emulsions”, “Table 4” for “Table 3”, “with water seven days after seeding,” for “with water,”, “ares. The test was conducted in a double system per one agent solution concentration area, and the herbicidal rates (%) were determined by the equation (Math. 1) on 14 days after the treatment with the agents. […] The compound numbers in Table 4 are the same as those in Table 1 and Table 2 above.” for “ares.”

In the case of `Cc1c(Cc2ccccc2NS(=O)(=O)C(F)(F)F)c(=O)on1Cc1cccc(F)c1` [Compound 1-182], the “Herbicidal rate (%) Echinochloa crus-galli” value was 90% in the assay on Echinochloa crus-galli [1] and 40% in the assay on Echinochloa crus-galli [4]. Further, the results for the “Herbicidal rate (%) Scirpus juncoides” value in the assay with Scirpus juncoides [2] and in the assay with Scirpus juncoides [5] were 100% and 70%, respectively. Further, the “Herbicidal rate (%) Lindernia pyxidaria” value in assay [3] is reported as 100%; in assay [6], 60%. Besides, the “Herbicidal rate (%) Monochoria vaginalis” value in assay [3] came out at 90%; in assay [6], 60%.

Consider `Cc1c(Cc2ccccc2NS(=O)(=O)C(F)(F)F)c(=O)on1Cc1ccc(Cl)cc1` [Compound 1-186], for which the “Herbicidal rate (%) Echinochloa crus-galli” value in the assay on Echinochloa crus-galli [1] is 90%; in the assay with Echinochloa crus-galli [4], 50%. Moreover, the results for the “Herbicidal rate (%) Scirpus juncoides” value in the assay with Scirpus juncoides [2] and in the assay on Scirpus juncoides [5] were 90% and 80%, respectively. Moreover, the “Herbicidal rate (%) Lindernia pyxidaria” value in assay [3] is on record as 100%; in assay [6], 80%. The “Herbicidal rate (%) Monochoria vaginalis” value is 100% in assay [3] and 80% in assay [6].

For the compound `Cc1c(Cc2ccccc2NS(=O)(=O)C(F)(F)F)c(=O)on1Cc1ccc(Br)cc1` [Compound 1-187], the “Herbicidal rate (%) Echinochloa crus-galli” value with Echinochloa crus-galli [1] stood at 90%; in the assay on Echinochloa crus-galli [4] it was 40%. Further, the “Herbicidal rate (%) Scirpus juncoides” value in the assay with Scirpus juncoides [2] is reported as 80%; in the assay with Scirpus juncoides [5] it was 70%. Also, the “Herbicidal rate (%) Lindernia pyxidaria” value in assay [3] amounted to 90%; in assay [6], 70%. Also, the “Herbicidal rate (%) Monochoria vaginalis” value is recorded as 90% in assay [3] and 80% in assay [6].

Take `Cc1c(Cc2ccccc2NS(=O)(=O)C(F)(F)F)c(=O)on1Cc1ccc(C#N)cc1` [Compound 1-189]: the “Herbicidal rate (%) Echinochloa crus-galli” value is 90% in the assay with Echinochloa crus-galli [1] and 60% in the assay on Echinochloa crus-galli [4]. Further, the “Herbicidal rate (%) Scirpus juncoides” value is listed as 90% in the assay on Scirpus juncoides [2] and 80% in the assay with Scirpus juncoides [5]. The “Herbicidal rate (%) Lindernia pyxidaria” value in assay [3] is recorded as 100%; in assay [6], 80%. Moreover, the “Herbicidal rate (%) Monochoria vaginalis” value in assay [3] is given as 90%; in assay [6] it was 80%.

With `Cc1c(Cc2ccccc2NS(=O)(=O)C(F)(F)F)c(=O)on1Cc1ccc(C(C)(C)C)cc1` [Compound 1-192], the results for the “Herbicidal rate (%) Echinochloa crus-galli” value with Echinochloa crus-galli [1] and with Echinochloa crus-galli [4] were 90% and 40%, respectively. Besides, the “Herbicidal rate (%) Scirpus juncoides” value with Scirpus juncoides [2] was 40%; with Scirpus juncoides [5] it was 60%. The “Herbicidal rate (%) Lindernia pyxidaria” value in assay [3] was determined as 100%; in assay [6], 80%. The “Herbicidal rate (%) Monochoria vaginalis” value in assay [3] is given as 100%; in assay [6] it was 80%.

For `Cc1c(Cc2ccccc2NS(=O)(=O)C(F)(F)F)c(=O)on1Cc1cccc(C(F)(F)F)c1` [Compound 1-193], the “Herbicidal rate (%) Echinochloa crus-galli” value with Echinochloa crus-galli [1] was found to be 90%; in the assay with Echinochloa crus-galli [4] it was 60%. Moreover, the figures for the “Herbicidal rate (%) Scirpus juncoides” value in the assay on Scirpus juncoides [2] and with Scirpus juncoides [5] were 90% and 70%, respectively. The “Herbicidal rate (%) Lindernia pyxidaria” value is 100% in assay [3] and 80% in assay [6]. Also, the “Herbicidal rate (%) Monochoria vaginalis” value in assay [3] is 100%; in assay [6], 80%.

For `Cc1c(Cc2ccccc2NS(=O)(=O)C(F)(F)F)c(=O)on1Cc1ccc(C(F)(F)F)cc1` [Compound 1-194], the “Herbicidal rate (%) Echinochloa crus-galli” value is listed as 80% in the assay on Echinochloa crus-galli [1] and 40% with Echinochloa crus-galli [4]. In addition, the “Herbicidal rate (%) Scirpus juncoides” value in the assay on Scirpus juncoides [2] is given as 80%; with Scirpus juncoides [5], 60%. Besides, the “Herbicidal rate (%) Lindernia pyxidaria” value worked out at 100% in assay [3] and 60% in assay [6]. For the same compound, the results for the “Herbicidal rate (%) Monochoria vaginalis” value in assay [3] and in assay [6] were 80% and 60%, respectively.

Consider `COc1ccc(Cn2oc(=O)c(Cc3ccccc3NS(=O)(=O)C(F)(F)F)c2C)cc1` [Compound 1-195], for which the “Herbicidal rate (%) Echinochloa crus-galli” value worked out at 90% in the assay on Echinochloa crus-galli [1] and 80% in the assay on Echinochloa crus-galli [4]. The “Herbicidal rate (%) Scirpus juncoides” value in the assay with Scirpus juncoides [2] amounted to 90%; in the assay on Scirpus juncoides [5], 80%. The “Herbicidal rate (%) Lindernia pyxidaria” value in assay [3] was 70%; in assay [6] it was 40%. Further, the entries for the “Herbicidal rate (%) Monochoria vaginalis” value in assay [3] and in assay [6] were 60% and 40%, respectively.

Regarding `Cc1c(Cc2ccccc2NS(=O)(=O)C(F)(F)F)c(=O)on1Cc1ccc(SC(F)(F)F)cc1` [Compound 1-198], the “Herbicidal rate (%) Echinochloa crus-galli” value in the assay with Echinochloa crus-galli [1] was determined as 80%; in the assay with Echinochloa crus-galli [4], 40%. For the same compound, the “Herbicidal rate (%) Scirpus juncoides” value in the assay on Scirpus juncoides [2] is on record as 80%; in the assay on Scirpus juncoides [5] it was 40%. Besides, the “Herbicidal rate (%) Lindernia pyxidaria” value is given as 100% in assay [3] and 90% in assay [6]. Also, the “Herbicidal rate (%) Monochoria vaginalis” value in assay [3] was found to be 100%; in assay [6], 90%.

Take `Cc1c(Cc2ccccc2NS(=O)(=O)C(F)(F)F)c(=O)on1Cc1ccc(F)cc1F` [Compound 1-199]: the “Herbicidal rate (%) Echinochloa crus-galli” value in the assay on Echinochloa crus-galli [1] amounted to 100%; in the assay with Echinochloa crus-galli [4], 90%. Further, the results for the “Herbicidal rate (%) Scirpus juncoides” value in the assay with Scirpus juncoides [2] and in the assay with Scirpus juncoides [5] were 90% and 80%, respectively. The “Herbicidal rate (%) Lindernia pyxidaria” value in assay [3] is given as 100%; in assay [6], 80%. Also, the “Herbicidal rate (%) Monochoria vaginalis” value in assay [3] is given as 100%; in assay [6] it was 80%.

With `Cc1c(Cc2ccccc2NS(=O)(=O)C(F)(F)F)c(=O)on1Cc1ccc(F)c(F)c1` [Compound 1-200], the entries for the “Herbicidal rate (%) Echinochloa crus-galli” value in the assay with Echinochloa crus-galli [1] and with Echinochloa crus-galli [4] were 90% and 60%, respectively. The results for the “Herbicidal rate (%) Scirpus juncoides” value in the assay with Scirpus juncoides [2] and in the assay with Scirpus juncoides [5] were 90% and 80%, respectively. For the same compound, the “Herbicidal rate (%) Lindernia pyxidaria” value in assay [3] was 100%; in assay [6], 90%. Also, the “Herbicidal rate (%) Monochoria vaginalis” value in assay [3] amounted to 100%; in assay [6], 90%.

As to `Cc1c(Cc2ccccc2NS(=O)(=O)C(F)(F)F)c(=O)on1Cc1ccc(F)cc1Cl` [Compound 1-201], the entries for the “Herbicidal rate (%) Echinochloa crus-galli” value with Echinochloa crus-galli [1] and in the assay with Echinochloa crus-galli [4] were 90% and 40%, respectively. For the same compound, the results for the “Herbicidal rate (%) Scirpus juncoides” value in the assay with Scirpus juncoides [2] and with Scirpus juncoides [5] were 100% and 40%, respectively. Besides, the entries for the “Herbicidal rate (%) Lindernia pyxidaria” value in assay [3] and in assay [6] were 90% and 70%, respectively. Besides, the “Herbicidal rate (%) Monochoria vaginalis” value in assay [3] is 80%; in assay [6] it was 70%.

As to `Cc1c(Cc2ccccc2NS(=O)(=O)C(F)(F)F)c(=O)on1Cc1ccc(F)c(Cl)c1` [Compound 1-202], the “Herbicidal rate (%) Echinochloa crus-galli” value with Echinochloa crus-galli [1] amounted to 100%; in the assay with Echinochloa crus-galli [4] it was 40%. The “Herbicidal rate (%) Scirpus juncoides” value in the assay with Scirpus juncoides [2] came out at 80%; with Scirpus juncoides [5], 40%. For the same compound, the results for the “Herbicidal rate (%) Lindernia pyxidaria” value in assay [3] and in assay [6] were 100% and 60%, respectively. For the same compound, the “Herbicidal rate (%) Monochoria vaginalis” value in assay [3] was found to be 90%; in assay [6], 60%.

As for `Cc1c(Cc2ccccc2NS(=O)(=O)C(F)(F)F)c(=O)on1C(C)c1ccc(F)cc1` (stereo not shown) [Compound 1-204], the figures for the “Herbicidal rate (%) Echinochloa crus-galli” value in the assay with Echinochloa crus-galli [1] and in the assay with Echinochloa crus-galli [4] were 100% and 80%, respectively. Moreover, the entries for the “Herbicidal rate (%) Scirpus juncoides” value in the assay on Scirpus juncoides [2] and with Scirpus juncoides [5] were 90% and 80%, respectively. Besides, the “Herbicidal rate (%) Lindernia pyxidaria” value in assay [3] was found to be 90%; in assay [6], 80%. The “Herbicidal rate (%) Monochoria vaginalis” value in assay [3] is recorded as 90%; in assay [6], 80%.
